From patent US11066414B2, “Cot modulators and methods of use thereof” (Gilead Sciences, Inc., priority 2015, dated 2021) come the findings set out here.

The pIC50 is the IC50 on a negative log10 scale, so that one unit is a factor of ten. For orientation: pEC50 means the EC50 on a negative log10 scale, so that one unit is a factor of ten.

pEC50, pIC50: −log10 of the molar value. Read-outs that look alike come from different tables or passages of the source.

One assay concerns the target Human Cot (Homo sapiens (Human), UniProt P41279). Nature of the assay: High Throughput Cot Biochemical Assay.
The subject of a further assay is TNFα. Nature of the assay: Cot Monocyte TNFα Cell Based Assay.
Where [1] appears, read: read-out: IC50 HTRF, Cot HTRF (TR-FRET KinEASE) biochemical assay, 400 μM ATP.
Where [2] appears, read: read-out: EC50 TNF, LPS-stimulated human monocytes, TNFα TR-FRET.
[3] abbreviates: IC50 HTRF, Cot HTRF (TR-FRET) biochemical assay.
[4] abbreviates: Homo sapiens, Monocyte, read-out: EC50 TNF, LPS-stimulated human monocytes, TNFα.
Setting [5] is: IC50 HTRF, Cot HTRF (TR-FRET KinEASE) biochemical assay, 400 μM ATP.
[6] abbreviates: Homo sapiens, Monocyte, read-out: EC50 TNF, LPS-stimulated human monocytes, TNFα TR-FRET.
Where [7] appears, read: read-out: IC50 HTRF, Cot HTRF (TR-FRET) biochemical assay.
Setting [8] is: read-out: EC50 TNF, LPS-stimulated human monocytes, TNFα.

Chain of Human Cot (P41279 30-397): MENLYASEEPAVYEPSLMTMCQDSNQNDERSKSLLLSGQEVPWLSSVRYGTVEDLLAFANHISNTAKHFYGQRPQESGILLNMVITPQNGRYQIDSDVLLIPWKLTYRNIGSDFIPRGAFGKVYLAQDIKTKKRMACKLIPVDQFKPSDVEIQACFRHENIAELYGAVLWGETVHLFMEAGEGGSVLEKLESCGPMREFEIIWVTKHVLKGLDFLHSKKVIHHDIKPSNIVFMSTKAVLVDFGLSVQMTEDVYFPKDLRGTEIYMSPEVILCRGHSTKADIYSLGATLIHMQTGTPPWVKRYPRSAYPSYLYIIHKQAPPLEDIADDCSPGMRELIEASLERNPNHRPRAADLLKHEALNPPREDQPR

Turning to `Cc1nc(F)ccc1[C@H](Nc1cc(C#N)c2ncc(C#N)c(NCC(C)(C)C(F)(F)F)c2c1)c1cn(C2(C3CC3)CC2)nn1` [Example 867, (S)-6-(((4-(1-(1,1-bi(cyclopropan)]-1-yl)-1H-1,2,3-triazol-4-yl)(6-fluoro-2-methylpyridin-3-yl)methyl)amino)-4-((3,3,3-trifluoro-2,2-dimethylpropyl)amino)quinoline-3,8-dicarbonitrile], the negative logarithm of the IC50 (pIC50) on Human Cot (setting [1]) is 8.52. Besides, the pEC50 in the assay with TNFα (setting [2]) was 7.57.
Consider `N#Cc1cnc2c(Cl)cc(N[C@H](c3cn(C4CC4)nn3)c3ccc(F)nc3F)cc2c1Nc1cnc(F)c(F)c1` [Example 149, (S)-8-chloro-6-(((1-cyclopropyl-1H-1,2,3-triazol-4-yl)(2,6-difluoropyridin-3-yl)methyl)amino)-4-((5,6-difluoropyridin-3-yl)amino)quinoline-3-carbonitrile], for which the pIC50 at Human Cot (setting [3]) was 8.10. For the same compound, the pEC50 in the assay with TNFα (setting [4]) is 6.42.
The like results for `COC[C@H](Nc1c(C#N)cnc2c(Cl)cc(N[C@@H](c3cccnc3)c3cn(C(C)C)nn3)cc12)c1ccccc1` [Example 204, 8-chloro-6-(((S)-(1-isopropyl-1H-1,2,3-triazol-4-yl)(pyridin-3-yl)methyl)amino)-4-(((R)-2-methoxy-1-phenylethyl)amino)quinoline-3-carbonitrile] were, in that order, 5.07 and less than 5.00.
The like results for `Cn1ccc2c([C@H](Nc3cc(Cl)c4ncc(C#N)c(NCC(C)(C)C)c4c3)c3cn(C4(C(F)F)CC4)nn3)cccc2c1=O` [Example 744, (S)-8-chloro-6-(((1-(1-(difluoromethyl)cyclopropyl)-1H-1,2,3-triazol-4-yl)(2-methyl-1-oxo-1,2-dihydroisoquinolin-5-yl)methyl)amino)-4-(neopentylamino)quinoline-3-carbonitrile] were, in that order, 8.52 and 7.48.
The like results for `CC(C)(C)CNc1c(C#N)cnc2c(Cl)cc(N[C@H](c3cn(C(C)(C)CF)nn3)c3cccc4ncccc34)cc12` [Example 694, (S)-8-chloro-6-(((1-(1-fluoro-2-methylpropan-2-yl)-1H-1,2,3-triazol-4-yl)(quinolin-5-yl)methyl)amino)-4-(neopentylamino)quinoline-3-carbonitrile] were, in that order, 8.15 and 7.08.
As to `Cc1nc(F)ccc1[C@@H](Nc1cc(Cl)c2ncc(C#N)c(NCC(C)(C)C)c2c1)c1cn(C2(C(F)F)CC2)nn1` [Example 509, (R)-8-chloro-6-(((1-(1-(difluoromethyl)-cyclopropyl)-1H-1,2,3-triazol-4-yl)(6-fluoro-2-methylpyridin-3-yl)methyl)amino)-4-(neopentylamino)quinoline-3-carbonitrile], the pIC50 against Human Cot (setting [3]) is 6.57. In the assay on TNFα (setting [4]), the pEC50 is 6.00.
Consider `CC(C)(C)CNc1c(C#N)cnc2c(Cl)cc(N[C@H](c3cn(C4(C(F)(F)F)CC4)nn3)c3ccc(Cl)c4ncccc34)cc12` [Example 921, (S)-8-chloro-6-(((8-chloroquinolin-5-yl)(1-(1-(trifluoromethyl)cyclopropyl)-1H-1,2,3-triazol-4-yl)methyl)amino)-4-(neopentylamino)quinoline-3-carbonitrile], for which the pIC50 at Human Cot (setting [5]) was 7.77. Moreover, in the assay on TNFα (setting [6]), the pEC50 was 6.73.
For the compound `Cn1ncc2c([C@H](Nc3cc(C#N)c4ncc(C#N)c(NCC(C)(C)C)c4c3)c3cn(Cc4c(F)cccc4F)nn3)cccc21` [Example 656], the pIC50 at Human Cot (setting [7]) is 8.40. Moreover, in the assay with TNFα (setting [8]), the pEC50 is 7.07.
Turning to `Cn1ccc2c([C@H](Nc3cc(C#N)c4ncc(C#N)c(NCC(C)(C)C)c4c3)c3cn(C4(C5CC5)CC4)nn3)cccc2c1=O` [Example 881, (S)-6-(((4-(1-(1-bi(cyclopropan)]-1-yl)-1H-1,2,3-triazol-4-yl)(2-methyl-1-oxo-1,2-dihydroisoquinolin-5-yl)methyl)amino)-4-(neopentylamino)quinoline-3,8-dicarbonitrile], the pIC50 on Human Cot (setting [1]) was 8.70. Also, the pEC50 with TNFα (setting [2]) was 7.89.
For `COc1nccc2c([C@H](Nc3cc(C#N)c4ncc(C#N)c(NCC(C)(C)C(F)(F)F)c4c3)c3cn(C4(C)CC4)nn3)cccc12` [Example 819, (S)-6-(((1-methoxylsoquinolin-5-yl)(1-(1-methylcyclopropyl)-1H-1,2,3-triazol-4-yl)methyl)amino)-4-((3,3,3-trifluoro-2,2-dimethylpropyl)amino)quinoline-3,8-dicarbonitrile], the pIC50 on Human Cot (setting [1]) was 8.70. Further, in the assay with TNFα (setting [2]), the pEC50 is 7.55.
`N#Cc1cnc2c(Cl)cc(N[C@@H](c3cocn3)c3cn(C4CCN(C5COC5)CC4)nn3)cc2c1Nc1ccc(Cl)c(Cl)c1F` [Example 242, (S)-8-chloro-4-((3,4-dichloro-2-fluorophenyl)amino)-6-((o)(azol-4-yl(1-(1-(oxetan-3-yl)piperidin-4-yl)-1H-1,2,3-triazol-4-yl)methyl)amino)quinoline-3-carbonitrile]: the pIC50 at Human Cot (setting [7]) is 6.84. The pEC50 in the assay on TNFα (setting [8]) was 5.24.
Turning to `COc1nccc2c([C@H](Nc3cc(Cl)c4ncc(C#N)c(NCC(C)(C)C(F)(F)F)c4c3)c3cn(C4(C(F)F)CC4)nn3)cccc12` [Example 934, (S)-8-chloro-6-(((1-(1-(difluoromethyl)cyclopropyl)-1H-1,2,3-triazol-4-yl)(1-methoxylsoquinolin-5-yl)methyl)amino)-4-((3,3,3-trifluoro-2,2-dimethylpropyl)amino)quinoline-3-carbonitrile], at Human Cot (setting [1]), the pIC50 was 8.15. Further, the pEC50 in the assay on TNFα (setting [2]) was 7.09.
Take `Cc1nc(F)ccc1[C@H](Nc1cc(Cl)c2ncc(C#N)c(NCC(C)(C)C)c2c1)c1nnn(C2(C(F)F)CC2)c1I` [Example 707, (S)-8-chloro-6-(((1-(1-(difluoromethyl)cyclopropyl)-5-iodo-1H-1,2,3-triazol-4-yl)(6-fluoro-2-methylpyridin-3-yl)methyl)amino)-4-(neopentylamino)quinoline-3-carbonitrile]: the pIC50 against Human Cot (setting [3]) was 7.80. The pEC50 in the assay with TNFα (setting [4]) was 6.64.
With `Cn1nnc2cccc([C@H](Nc3cc(C#N)c4ncc(C#N)c(NCC(C)(C)C)c4c3)c3cn(C4(C(F)F)CC4)nn3)c21` [Example 559, (S)-6-(((4-(1-1-(difluoromethyl)cyclopropyl)-1H-1,2,3-triazol-4-yl)(1-methyl-1H-benzo[d] [1,2,3]triazol-7-yl)methyl)amino)-4-(neopentylamino)quinoline-3,8-dicarbonitrile], the pIC50 on Human Cot (setting [7]) was 8.70. For the same compound, the pEC50 in the assay with TNFα (setting [8]) is 7.38.
As to `Cc1nc(F)ccc1C(Nc1cc(Cl)c2ncc(C#N)c(NCC(C)(C)C)c2c1)c1cn(C)nn1` (stereo not drawn) [Example 791, 8-chloro-6-(((6-fluoro-2-methylpyridin-3-yl)(1-methyl-1H-1,2,3-triazol-4-yl)methyl)amino)-4-(neopentylamino)quinoline-3-carbonitrile], the pIC50 against Human Cot (setting [3]) is 7.66. Further, the pEC50 with TNFα (setting [4]) is 6.62.
The like results for `CC(C)(C)CNc1c(C#N)cnc2c(F)cc(N[C@H](c3cn(C4(C(N)=O)CCC4)nn3)c3cccc4ncsc34)cc12` [Example 481, (S)-1-(4-(benzo[d]thiazol-7-yl((3-cyano-8-fluoro-4-(neopentylamino)quinolin-6-yl)-amino)methyl)-1H-1,2,3-triazol-1-yl)cyclobutane-1-carboxamide] were, in that order, 8.22 and 6.41.
The matching figures for `[2H]C(Nc1cc(Cl)c2ncc(C#N)c(NCC(C)(C)C)c2c1)(c1cn(C2CC2)nn1)c1cc(F)cnc1C` (stereo not drawn) [Example 114, 8-chloro-6-(((1-cyclopropyl-1H-1,2,3-triazol-4-yl)(5-fluoro-2-methylpyridin-3-yl)methyl-d)amino)-4-(neopentylamino)quinoline-3-carbonitrile]: 8.00 and 6.63.
The matching figures for `CC(C)(C)N1CCC(n2cc([C@@H](Nc3cc(Cl)c4ncc(C#N)c(Nc5ccc(Cl)c(Cl)c5)c4c3)c3cscn3)nn2)CC1` [Example 350, (S)-6-(((1-(1-(tert-butyl)piperidin-4-yl)-1H-1,2,3-triazol-4-yl)(thiazol-4-yl)methyl)amino)-8-chloro-4-((3,4-dichlorophenyl)amino)quinoline-3-carbonitrile]: 7.59 and 5.35.
At Human Cot (setting [5]), `COc1c(C(Nc2cc(Cl)c3ncc(C#N)c(NCC(C)(C)C)c3c2)c2ccc(F)nc2C)nnn1C` (stereo not drawn) [Example 971, 8-chloro-6-(((6-fluoro-2-methylpyridin-3-yl)(5-methoxy-1-methyl-1H-1,2,3-triazol-4-yl)methyl)amino)-4-(neopentylamino)quinoline-3-carbonitrile] gave a pIC50 of 7.96. Besides, the pEC50 in the assay on TNFα (setting [6]) was 6.52.
Compound `N#Cc1cnc2c(Cl)cc(N[C@H](c3cn(C4COC4)nn3)c3ccc(Cl)nc3Cl)cc2c1Nc1ccc(F)c(Cl)c1` [Example 322, (S)-8-chloro-4-((3-chloro-4-fluorophenyl)amino)-6-(((2,6-dichloro-pyridin-3-yl)(1-(oxetan-3-yl)-1H-1,2,3-triazol-4-yl)methyl)amino)quinoline-3-carbonitrile] showed a pIC50 against Human Cot (setting [3]) of 7.48. Further, the pEC50 in the assay on TNFα (setting [4]) was 6.43.
For the compound `Cn1cc2c([C@H](Nc3cc(Cl)c4ncc(C#N)c(NCC(C)(C)C)c4c3)c3cn(C4(C(F)(F)F)CC4)nn3)cccc2n1` [Example 544, (S)-8-chloro-6-(((2-methyl-2H-indazol-4-yl)(1-(1-(trifluoromethyl)cyclopropyl)-1H-1,2,3-triazol-4-yl)methyl)amino)-4-(neopentylamino)quinoline-3-carbonitrile], the pIC50 on Human Cot (setting [3]) is 8.10. Also, the pEC50 in the assay with TNFα (setting [4]) is 6.68.
